Earlier results as cited in patent publication US20240180842A1, “COLON TARGETED DRUG DELIVERY” (Axial Therapeutics, Inc., priority 2022, published 2024).

Test system: ASD individuals with high irritability (ABC-I≥18)
Details: phase 3 study, drug arms; placebo arm 34.7%

O=C1CCc2ccc(OCCCCN3CCN(c4cccc(Cl)c4Cl)CC3)cc2N1 [aripiprazole]
response rate (25% improvement in ABC-I scores and CGI-I≤2): 49-56%
